Source: PubChem BioAssay (NCI)
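1) Cells in 96-well plates. 2) Compound, 48 h, 5 concentrations. 3) Linear interpolation between surrounding doses. 4) Unreached endpoint = highest concentration. At the GI50, growth is halved. TGI: total growth inhibition.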

Tests used:
Test in all cases: NCI-60 cell line screen, 48 h
SW-620 colon = test system: SW-620 colon
SR leukemia = test system: SR leukemia
RXF 393 renal = test system: RXF 393 renal
NCI-H226 lung = test system: NCI-H226 lung
MDA-MB-231 breast = test system: MDA-MB-231 breast
DU-145 prostate = test system: DU-145 prostate
U251 CNS = test system: U251 CNS
SF-539 CNS = test system: SF-539 CNS
SF-295 CNS = test system: SF-295 CNS
RPMI-8226 leukemia = test system: RPMI-8226 leukemia
MALME-3M melanoma = test system: MALME-3M melanoma
NCI-H522 lung = test system: NCI-H522 lung
OVCAR-3 ovarian = test system: OVCAR-3 ovarian
EKVX NSCLC = test system: EKVX NSCLC
HCC-2998 colon = test system: HCC-2998 colon
COLO 205 colon = test system: COLO 205 colon
OVCAR-8 ovarian = test system: OVCAR-8 ovarian
SK-MEL-5 melanoma = test system: SK-MEL-5 melanoma
ACHN renal = test system: ACHN renal
MDA-MB-435 = test system: MDA-MB-435
TK-10 renal = test system: TK-10 renal
M14 melanoma = test system: M14 melanoma
HCT-15 colon = test system: HCT-15 colon
SK-MEL-2 melanoma = test system: SK-MEL-2 melanoma
SN12C renal = test system: SN12C renal
SNB-19 CNS = test system: SNB-19 CNS
UO-31 renal = test system: UO-31 renal
OVCAR-4 ovarian = test system: OVCAR-4 ovarian

`O=C(/C(=C/c1ccc([N+](=O)[O-])cc1)SCc1ccc(F)cc1)c1ccc(Cl)cc1` was tested, and the GI50 (SW-620 colon) was 2.03 µM, the TGI (SW-620 colon) was 4.78 µM and the GI50 (SR leukemia) was 2.63 µM. The TGI (SR leukemia) was > 100 µM, the GI50 (RXF 393 renal) was 15.5 µM and the TGI (RXF 393 renal) was 36.6 µM. The GI50 (NCI-H226 lung) was 13.7 µM, the TGI (NCI-H226 lung) was 44.5 µM and the GI50 (MDA-MB-231 breast) was 4.37 µM. For the same molecule, the TGI (MDA-MB-231 breast) was 23 µM, the GI50 (DU-145 prostate) was 38.6 µM and the TGI (DU-145 prostate) was > 100 µM. The GI50 (U251 CNS) was 2.07 µM, the TGI (U251 CNS) was 4.02 µM and the GI50 (SF-539 CNS) was 15.5 µM. For the same molecule, the TGI (SF-539 CNS) was 33.2 µM, the GI50 (SF-295 CNS) was 7.09 µM and the TGI (SF-295 CNS) was 25.1 µM. The GI50 (RPMI-8226 leukemia) was 1.92 µM, the TGI (RPMI-8226 leukemia) was 6.36 µM and the GI50 (MALME-3M melanoma) was 10.1 µM. The TGI (MALME-3M melanoma) was 24.6 µM, the GI50 (NCI-H522 lung) was 1.88 µM and the TGI (NCI-H522 lung) was 4.44 µM. For the same molecule, the GI50 (OVCAR-3 ovarian) was 3.06 µM, the TGI (OVCAR-3 ovarian) was 10.6 µM and the GI50 (EKVX NSCLC) was 11.5 µM. The TGI (EKVX NSCLC) was 38.6 µM, the GI50 (HCC-2998 colon) was 5.11 µM and the TGI (HCC-2998 colon) was 19 µM. It also gave a GI50 (COLO 205 colon) of 6.46 µM, a TGI (COLO 205 colon) of 28.5 µM and a GI50 (OVCAR-8 ovarian) of 6.6 µM. It also gave a TGI (OVCAR-8 ovarian) of 96.6 µM, a GI50 (SK-MEL-5 melanoma) of 4.33 µM and a TGI (SK-MEL-5 melanoma) of 15.2 µM. For the same molecule, the GI50 (ACHN renal) was 1.96 µM, the TGI (ACHN renal) was 4.1 µM and the GI50 (MDA-MB-435) was 2.78 µM. For the same molecule, the TGI (MDA-MB-435) was 9.49 µM, the GI50 (TK-10 renal) was 20.1 µM and the TGI (TK-10 renal) was 54.8 µM. It also gave a GI50 (M14 melanoma) of 3.91 µM, a TGI (M14 melanoma) of 20.2 µM and a GI50 (HCT-15 colon) of 2.9 µM. The TGI (HCT-15 colon) was 11.6 µM, the GI50 (SK-MEL-2 melanoma) was 13.8 µM and the TGI (SK-MEL-2 melanoma) was 36.4 µM. It also gave a GI50 (SN12C renal) of 6.94 µM, a TGI (SN12C renal) of 34.5 µM and a GI50 (SNB-19 CNS) of 3.28 µM. It also gave a TGI (SNB-19 CNS) of 11.6 µM, a GI50 (UO-31 renal) of 3.6 µM and a TGI (UO-31 renal) of 17.8 µM. For the same molecule, the GI50 (OVCAR-4 ovarian) was 3.12 µM.
